From PubChem BioAssay AID248 (DTP/NCI, 2004)
Where “and” joins values, the source holds several entries; their conditions need not be identical. Equal values may be shown once. Toxic doses and inconclusive results are not listed. No stated cut-off is given here; in the data, active means T/C of 150% or more; inactive means T/C below 125%.

Test system: L1210 leukemia ip in BDF1 mice, survival T/C
Assay: NCI In Vivo Anticancer Drug Screen. Data for tumor model L1210 Leukemia (intraperitoneal) in B6D2F1 (BDF1) mice
Conditions: endpoint: mean survival time, higher = longer survival
Procedure, shortened: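 Each compound was tested against a transplantable tumor grown in mice. The endpoint was survival, with treated animals benchmarked against vehicle controls as a simple ratio.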

[1] = dose: 100.0 mg/kg/injection, schedule: Q04DX003 (ip), vehicle: Klucel (hydroxypropylcellulose) (HPC)
[2] = dose: 200.0 mg/kg/injection, schedule: Q04DX003 (ip), vehicle: Klucel (hydroxypropylcellulose) (HPC)
[3] = dose: 400.0 mg/kg/injection, schedule: Q04DX003 (ip), vehicle: Klucel (hydroxypropylcellulose) (HPC)
[4] = dose: 100.0 mg/kg/injection, schedule: Q01DX001 (ip), vehicle: saline
[5] = dose: 100.0 mg/kg/injection, schedule: Q04DX003 (ip), vehicle: saline
[6] = dose: 200.0 mg/kg/injection, schedule: Q01DX001 (ip), vehicle: saline
[7] = dose: 400.0 mg/kg/injection, schedule: Q01DX001 (ip), vehicle: saline
[8] = dose: 100.0 mg/kg/injection, schedule: Q01DX009 (ip), vehicle: Klucel (hydroxypropylcellulose) (HPC)
[9] = dose: 200.0 mg/kg/injection, schedule: Q01DX009 (ip), vehicle: Klucel (hydroxypropylcellulose) (HPC)
[10] = dose: 400.0 mg/kg/injection, schedule: Q01DX009 (ip), vehicle: Klucel (hydroxypropylcellulose) (HPC)
[11] = dose: 100.0 mg/kg/injection, schedule: Q01DX001 (ip), vehicle: Klucel (hydroxypropylcellulose) (HPC)
[12] = dose: 200.0 mg/kg/injection, schedule: Q01DX001 (ip), vehicle: Klucel (hydroxypropylcellulose) (HPC)
[13] = dose: 100.0 mg/kg/injection, schedule: Q04DX003 (ip), vehicle: saline with Tween-80
[14] = dose: 200.0 mg/kg/injection, schedule: Q04DX003 (ip), vehicle: saline with Tween-80

Measured: T/C

Cc1ccc(NC(=O)N2CC2(C)C)cc1NC(=O)N1CC1(C)C
inactive: [1] 121 % of control | [2] 116 % of control | dose: 265.0 mg/kg/injection, schedule: Q04DX003 (ip), vehicle: Klucel (hydroxypropylcellulose) (HPC) 120 % of control | [3] 111 % of control | dose: 600.0 mg/kg/injection, schedule: Q04DX003 (ip), vehicle: Klucel (hydroxypropylcellulose) (HPC) 94 % of control

CC(=O)OCC1(C[N+](C)(C)C)CCC1
inactive: [4] 103 % of control | [5] 95 % of control | [6] 97 % of control | dose: 200.0 mg/kg/injection, schedule: Q04DX003 (ip), vehicle: saline 94 % of control | [7] 110 % of control

Cc1c2c(cc3c1CCC1(C)C3=CCC1C(C)CCC(C)C(C)C)CCCC2 (stereo not given)
inactive: dose: 100.0 mg/kg/injection, schedule: Q01DX001 (ip), vehicle: saline with Tween-80 93 % of control | dose: 200.0 mg/kg/injection, schedule: Q01DX001 (ip), vehicle: saline with Tween-80 95 % of control | dose: 400.0 mg/kg/injection, schedule: Q01DX001 (ip), vehicle: saline with Tween-80 91 % of control

O=c1[nH]cc(F)c(=O)[nH]1.[Tl]
inactive: dose: 3.12 mg/kg/injection, schedule: Q04DX003 (ip), vehicle: water 108 % of control | dose: 6.25 mg/kg/injection, schedule: Q04DX003 (ip), vehicle: water 107 % of control | dose: 12.5 mg/kg/injection, schedule: Q01DX009 (ip), vehicle: Klucel (hydroxypropylcellulose) (HPC) 102 % of control | dose: 12.5 mg/kg/injection, schedule: Q04DX003 (ip), vehicle: water 118 % of control

C1=CC2CC1CC2[P+](c1ccccc1)(c1ccccc1)c1ccccc1 (stereo not given)
inactive: dose: 12.5 mg/kg/injection, schedule: Q01DX001 (ip), vehicle: saline 117 % of control | dose: 25.0 mg/kg/injection, schedule: Q01DX001 (ip), vehicle: saline 98 % of control | dose: 50.0 mg/kg/injection, schedule: Q01DX001 (ip), vehicle: saline 95 % of control

COc1ccc(NC(=O)N2CCN(c3ccccc3)CC2)c(OC)c1
inactive: [8] 102 % of control | [9] 96 % of control | [10] 96 % of control

CC1CC(C)(C)S(=O)(=O)O1 (stereo not given)
inactive: dose: 50.0 mg/kg/injection, schedule: Q01DX001 (ip), vehicle: carboxymethylcellulose (CMC) 107 % of control | dose: 100.0 mg/kg/injection, schedule: Q01DX001 (ip), vehicle: carboxymethylcellulose (CMC) 98 % of control | dose: 200.0 mg/kg/injection, schedule: Q01DX001 (ip), vehicle: carboxymethylcellulose (CMC) 109 % of control | dose: 400.0 mg/kg/injection, schedule: Q01DX001 (ip), vehicle: carboxymethylcellulose (CMC) 102 % of control

O=c1c(N=Nc2ccc(Cl)cc2)c(O)n(-c2ccc(Br)cc2)c(=S)n1-c1ccccc1
inactive: dose: 50.0 mg/kg/injection, schedule: Q01DX001 (ip), vehicle: Klucel (hydroxypropylcellulose) (HPC) 97 % of control | [11] 101 % of control | [12] 97 % of control

O=C(Nc1ccccc1)Nc1nccs1
inactive: [4] 102 % of control | [1] 105 % of control | [6] 106 % of control | [2] 100 % of control | [7] 101 % of control

c1ccc2c(c1)CCc1ccccc1N=N2
inactive: [11] 96 % of control | [12] 92 % of control | dose: 400.0 mg/kg/injection, schedule: Q01DX001 (ip), vehicle: Klucel (hydroxypropylcellulose) (HPC) 94 % of control

CC1(C)C(=NNC(N)=O)C(C)(C)C1=NNC(N)=O
inactive: [4] 96 % of control | [1] 91 % of control | [6] 94 % of control | [7] 90 % of control

c1cc[c]([Sn]([S]c2ncnc3c2nc[n]3[Sn]([c]2ccccc2)([c]2ccccc2)[c]2ccccc2)([c]2ccccc2)[c]2ccccc2)cc1.c1cc[c]([Sn]([S]c2ncnc3nc[nH]c23)([c]2ccccc2)[c]2ccccc2)cc1
inactive: dose: 5.0 mg/kg/injection, schedule: Q01DX001 (ip), vehicle: other 122 % of control | dose: 10.0 mg/kg/injection, schedule: Q01DX001 (ip), vehicle: other 100 % of control | dose: 20.0 mg/kg/injection, schedule: Q01DX001 (ip), vehicle: other 100 % of control

Cc1[nH]c(N)nc(=S)c1CCCOc1ccc([N+](=O)[O-])cc1
inactive: dose: 50.0 mg/kg/injection, schedule: Q01DX009 (ip), vehicle: Klucel (hydroxypropylcellulose) (HPC) 112 % of control | [8] 96 % of control | [9] 102 % of control

O=C(C[n+]1ccccc1Br)c1ccc2ccccc2c1
inactive: dose: 9.38 mg/kg/injection, schedule: Q01DX001 (ip), vehicle: other 104 % of control | dose: 18.75 mg/kg/injection, schedule: Q01DX001 (ip), vehicle: other 103 % of control | dose: 37.5 mg/kg/injection, schedule: Q01DX001 (ip), vehicle: other 103 % of control

O=C(NC(=S)Nc1cccc(Cl)c1)c1ccc(Cl)cc1Cl
inactive: [11] 87 % of control | [8] 87 % of control | dose: 100.0 mg/kg/injection, schedule: Q04DX002 (ip), vehicle: Klucel (hydroxypropylcellulose) (HPC) 115 % of control | [1] 97 % of control | [9] 97 % of control and 87 % of control | dose: 200.0 mg/kg/injection, schedule: Q04DX002 (ip), vehicle: Klucel (hydroxypropylcellulose) (HPC) 93 % of control | [2] 103 % of control | [10] 87 % of control and 92 % of control | dose: 400.0 mg/kg/injection, schedule: Q04DX002 (ip), vehicle: Klucel (hydroxypropylcellulose) (HPC) 94 % of control | [3] 108 % of control

c1ccc(-c2ccc(-c3ccccc3)c(-c3ccc4c(c3)CCC4)c2-c2ccccc2)cc1
inactive: [13] 96 % of control | [14] 96 % of control | dose: 400.0 mg/kg/injection, schedule: Q04DX003 (ip), vehicle: saline with Tween-80 89 % of control

ClC12CCC(Cl)(CC1)CC2
inactive: dose: 75.0 mg/kg/injection, schedule: Q01DX001 (ip), vehicle: acetone 103 % of control

CCCCNC(=O)NC/C(Br)=C/Br
inactive: dose: 75.0 mg/kg/injection, schedule: Q01DX009 (ip), vehicle: Klucel (hydroxypropylcellulose) (HPC) 101 % of control | [1] 98 % of control | dose: 150.0 mg/kg/injection, schedule: Q01DX009 (ip), vehicle: Klucel (hydroxypropylcellulose) (HPC) 100 % of control | [2] 96 % of control | dose: 300.0 mg/kg/injection, schedule: Q01DX009 (ip), vehicle: Klucel (hydroxypropylcellulose) (HPC) 97 % of control | [3] 93 % of control

CO[Si](OC)(OC)OC
inactive: dose: 25.0 mg/kg/injection, schedule: Q01DX009 (ip), vehicle: saline with Tween-80 92 % of control | dose: 25.0 mg/kg/injection, schedule: Q04DX003 (ip), vehicle: saline 94 % of control | dose: 50.0 mg/kg/injection, schedule: Q01DX009 (ip), vehicle: saline with Tween-80 92 % of control | dose: 50.0 mg/kg/injection, schedule: Q04DX003 (ip), vehicle: saline 108 % of control | [13] 101 % of control | [5] 103 % of control

CNC(=O)Nc1nc2ccccc2[nH]1
inactive: [4] 103 % of control | [13] 109 % of control | [6] 115 % of control | [14] 109 % of control | [7] 100 % of control

O=C1NNC(=O)C2C3CCC(C3)C12 (stereo not given)
inactive: dose: 50.0 mg/kg/injection, schedule: Q01DX009 (ip), vehicle: saline 98 % of control

COc1ccc(NC(=O)CC#N)cc1
inactive: [11] 101 % of control | [12] 95 % of control
